Measurements published in US20250114345A1, “COMPOUNDS AND COMPOSITIONS AS CBP/P300 DEGRADERS AND USES THEREOF” (Oncopia Therapeutics, Inc. d/b/a/ SK Life Science Labs, priority 2023, published 2025).

How the values were obtained:
p300 = target: T1, p300 (Homo sapiens, UniProt Q09472); assay: P300 degradation, HiBit technology in A549 P300 HiBit cells (2 h); assay type: cell-based; conditions: 2 hrs post treatment; for Dmax: A549, A549 P300 HiBit cells; for DC50: A549 P300 HiBit cells
T1 construct: host or cells: A549 P300 HiBit cells
In short: (§1)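 Endogenously HiBiT-tagged A549 cells are plated, left overnight, then treated with a compound dilution series at 37 °C and 5% CO2. At the set time, lytic detection buffer is added and plates are shaken 10 min at room temperature before luminescence is measured to derive potency and Dmax.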

CBP = target: T2, CBP (Homo sapiens, UniProt Q92793); assay: CBP degradation, HiBit technology in A549 CBP HiBit cells (24 h); assay type: cell-based; conditions: 24 hrs post treatment
T2 construct: host or cells: A549 CBP HiBit cells
In short: as §1

T1 sequence (Q09472 whole entry): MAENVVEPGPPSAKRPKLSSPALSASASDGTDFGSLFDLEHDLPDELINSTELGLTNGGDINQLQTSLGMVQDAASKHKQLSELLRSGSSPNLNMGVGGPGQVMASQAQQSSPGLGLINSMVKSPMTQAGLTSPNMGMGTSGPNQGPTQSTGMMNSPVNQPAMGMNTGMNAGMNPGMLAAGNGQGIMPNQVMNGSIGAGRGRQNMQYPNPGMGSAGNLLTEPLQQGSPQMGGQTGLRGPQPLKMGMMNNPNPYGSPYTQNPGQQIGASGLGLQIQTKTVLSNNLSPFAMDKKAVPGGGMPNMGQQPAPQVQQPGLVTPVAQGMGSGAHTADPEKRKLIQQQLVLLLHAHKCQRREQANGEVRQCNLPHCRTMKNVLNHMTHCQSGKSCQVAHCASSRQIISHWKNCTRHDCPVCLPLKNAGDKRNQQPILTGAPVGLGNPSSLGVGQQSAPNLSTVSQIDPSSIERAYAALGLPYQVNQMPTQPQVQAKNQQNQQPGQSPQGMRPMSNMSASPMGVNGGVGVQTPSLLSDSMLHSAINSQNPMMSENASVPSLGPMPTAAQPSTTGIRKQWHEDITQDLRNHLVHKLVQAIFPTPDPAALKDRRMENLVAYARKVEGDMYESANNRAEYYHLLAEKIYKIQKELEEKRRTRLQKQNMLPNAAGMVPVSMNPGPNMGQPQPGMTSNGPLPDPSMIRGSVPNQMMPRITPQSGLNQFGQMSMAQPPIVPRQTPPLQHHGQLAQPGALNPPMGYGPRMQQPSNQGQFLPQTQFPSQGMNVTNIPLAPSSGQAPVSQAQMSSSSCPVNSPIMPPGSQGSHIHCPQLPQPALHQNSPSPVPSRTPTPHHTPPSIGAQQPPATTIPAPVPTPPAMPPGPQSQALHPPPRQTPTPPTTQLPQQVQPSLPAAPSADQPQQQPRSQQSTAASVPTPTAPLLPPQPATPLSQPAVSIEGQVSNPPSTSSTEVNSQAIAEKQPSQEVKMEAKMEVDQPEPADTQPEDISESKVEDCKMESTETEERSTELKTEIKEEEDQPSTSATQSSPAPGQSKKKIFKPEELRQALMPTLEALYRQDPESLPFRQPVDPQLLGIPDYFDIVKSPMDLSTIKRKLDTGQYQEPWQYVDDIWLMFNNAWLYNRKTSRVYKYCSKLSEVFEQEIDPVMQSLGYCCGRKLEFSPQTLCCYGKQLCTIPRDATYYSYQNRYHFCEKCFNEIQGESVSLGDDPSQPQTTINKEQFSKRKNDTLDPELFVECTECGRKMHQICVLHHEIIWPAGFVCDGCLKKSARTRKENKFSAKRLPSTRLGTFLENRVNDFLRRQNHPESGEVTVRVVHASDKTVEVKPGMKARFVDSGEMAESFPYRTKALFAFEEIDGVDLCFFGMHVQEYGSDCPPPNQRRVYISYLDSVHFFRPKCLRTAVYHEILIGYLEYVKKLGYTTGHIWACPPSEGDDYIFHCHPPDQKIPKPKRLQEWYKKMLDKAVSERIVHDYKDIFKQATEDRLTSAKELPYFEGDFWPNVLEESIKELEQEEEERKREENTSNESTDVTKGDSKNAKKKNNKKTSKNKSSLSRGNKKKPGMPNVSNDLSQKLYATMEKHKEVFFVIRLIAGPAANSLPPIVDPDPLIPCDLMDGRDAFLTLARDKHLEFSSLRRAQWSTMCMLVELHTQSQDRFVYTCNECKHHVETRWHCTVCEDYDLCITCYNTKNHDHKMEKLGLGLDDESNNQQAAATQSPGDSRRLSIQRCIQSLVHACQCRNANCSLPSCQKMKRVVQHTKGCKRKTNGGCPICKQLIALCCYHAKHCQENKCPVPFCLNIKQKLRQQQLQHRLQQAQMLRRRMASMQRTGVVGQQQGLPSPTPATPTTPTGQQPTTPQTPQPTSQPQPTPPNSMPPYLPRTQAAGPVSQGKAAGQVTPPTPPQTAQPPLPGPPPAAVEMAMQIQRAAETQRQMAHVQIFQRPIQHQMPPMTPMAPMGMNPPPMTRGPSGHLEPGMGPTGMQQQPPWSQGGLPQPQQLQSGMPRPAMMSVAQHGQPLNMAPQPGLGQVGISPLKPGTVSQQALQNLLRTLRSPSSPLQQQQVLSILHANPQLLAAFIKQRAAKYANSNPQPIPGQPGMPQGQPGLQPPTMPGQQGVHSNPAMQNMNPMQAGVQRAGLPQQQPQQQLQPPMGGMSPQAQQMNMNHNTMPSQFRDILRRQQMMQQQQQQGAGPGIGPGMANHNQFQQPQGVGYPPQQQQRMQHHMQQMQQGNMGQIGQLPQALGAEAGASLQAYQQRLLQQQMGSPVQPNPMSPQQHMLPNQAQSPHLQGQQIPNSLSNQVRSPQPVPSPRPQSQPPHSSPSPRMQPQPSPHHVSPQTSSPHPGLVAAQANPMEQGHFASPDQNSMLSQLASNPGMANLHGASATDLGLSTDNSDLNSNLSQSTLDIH
T2 sequence (Q92793 whole entry): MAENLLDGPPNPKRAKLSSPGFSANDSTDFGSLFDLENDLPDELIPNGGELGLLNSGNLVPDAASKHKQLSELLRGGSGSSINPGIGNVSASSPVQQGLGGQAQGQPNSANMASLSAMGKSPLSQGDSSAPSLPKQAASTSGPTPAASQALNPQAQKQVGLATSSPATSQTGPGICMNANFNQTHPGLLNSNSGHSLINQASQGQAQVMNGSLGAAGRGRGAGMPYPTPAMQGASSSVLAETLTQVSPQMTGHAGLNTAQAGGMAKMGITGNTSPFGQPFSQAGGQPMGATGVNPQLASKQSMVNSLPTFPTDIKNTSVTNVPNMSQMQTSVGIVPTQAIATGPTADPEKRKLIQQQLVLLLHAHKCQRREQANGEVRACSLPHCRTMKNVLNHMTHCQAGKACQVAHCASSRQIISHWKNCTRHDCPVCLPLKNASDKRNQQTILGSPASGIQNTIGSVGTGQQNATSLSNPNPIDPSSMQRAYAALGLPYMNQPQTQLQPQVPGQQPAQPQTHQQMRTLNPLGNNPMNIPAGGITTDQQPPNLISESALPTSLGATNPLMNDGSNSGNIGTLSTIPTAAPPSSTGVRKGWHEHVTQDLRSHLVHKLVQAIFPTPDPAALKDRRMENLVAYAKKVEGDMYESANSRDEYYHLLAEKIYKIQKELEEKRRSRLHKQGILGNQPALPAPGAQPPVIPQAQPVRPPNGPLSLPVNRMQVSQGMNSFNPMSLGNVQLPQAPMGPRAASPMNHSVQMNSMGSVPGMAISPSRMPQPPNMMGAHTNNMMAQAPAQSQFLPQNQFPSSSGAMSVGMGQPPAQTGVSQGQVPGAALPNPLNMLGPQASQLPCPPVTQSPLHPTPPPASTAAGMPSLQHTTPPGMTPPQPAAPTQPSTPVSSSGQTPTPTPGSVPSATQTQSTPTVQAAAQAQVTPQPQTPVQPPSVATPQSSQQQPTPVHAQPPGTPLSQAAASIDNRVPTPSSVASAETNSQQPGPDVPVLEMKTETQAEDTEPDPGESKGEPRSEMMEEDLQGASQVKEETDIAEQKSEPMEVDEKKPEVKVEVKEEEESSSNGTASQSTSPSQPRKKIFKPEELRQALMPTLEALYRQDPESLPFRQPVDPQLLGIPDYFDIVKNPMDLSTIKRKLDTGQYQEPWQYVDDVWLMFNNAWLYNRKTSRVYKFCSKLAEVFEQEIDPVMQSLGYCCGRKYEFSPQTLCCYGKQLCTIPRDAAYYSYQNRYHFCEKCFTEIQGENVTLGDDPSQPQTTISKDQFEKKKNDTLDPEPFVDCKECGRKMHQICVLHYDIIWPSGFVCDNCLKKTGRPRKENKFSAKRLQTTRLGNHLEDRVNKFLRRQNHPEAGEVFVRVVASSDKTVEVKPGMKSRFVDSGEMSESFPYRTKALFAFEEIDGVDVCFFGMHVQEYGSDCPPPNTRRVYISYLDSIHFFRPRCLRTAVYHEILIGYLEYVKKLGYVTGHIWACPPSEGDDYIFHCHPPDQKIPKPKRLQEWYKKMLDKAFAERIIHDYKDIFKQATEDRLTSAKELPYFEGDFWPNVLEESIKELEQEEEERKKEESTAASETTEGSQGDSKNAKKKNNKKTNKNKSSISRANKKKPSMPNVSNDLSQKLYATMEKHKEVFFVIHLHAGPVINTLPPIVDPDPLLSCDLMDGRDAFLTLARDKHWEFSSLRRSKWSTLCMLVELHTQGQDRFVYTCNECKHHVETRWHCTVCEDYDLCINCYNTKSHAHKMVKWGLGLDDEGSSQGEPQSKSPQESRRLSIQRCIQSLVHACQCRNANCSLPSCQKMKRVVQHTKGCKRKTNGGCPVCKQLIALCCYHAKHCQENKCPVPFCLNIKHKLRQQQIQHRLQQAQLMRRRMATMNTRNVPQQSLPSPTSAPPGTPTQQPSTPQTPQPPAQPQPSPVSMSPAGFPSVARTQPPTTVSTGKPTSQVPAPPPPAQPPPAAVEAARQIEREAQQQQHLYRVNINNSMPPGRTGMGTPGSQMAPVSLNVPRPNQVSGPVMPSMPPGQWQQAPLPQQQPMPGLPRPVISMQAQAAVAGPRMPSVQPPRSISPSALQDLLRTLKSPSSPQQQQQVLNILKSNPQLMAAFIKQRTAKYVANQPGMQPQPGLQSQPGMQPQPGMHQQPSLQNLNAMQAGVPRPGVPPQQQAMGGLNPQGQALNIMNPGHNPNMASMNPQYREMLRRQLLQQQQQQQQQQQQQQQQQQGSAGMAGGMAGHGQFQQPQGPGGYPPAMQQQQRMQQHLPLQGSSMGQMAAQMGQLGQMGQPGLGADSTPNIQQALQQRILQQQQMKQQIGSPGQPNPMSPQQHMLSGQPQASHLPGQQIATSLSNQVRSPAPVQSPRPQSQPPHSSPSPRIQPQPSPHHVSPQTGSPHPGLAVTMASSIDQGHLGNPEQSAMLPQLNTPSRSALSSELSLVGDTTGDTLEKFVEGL

Structure (SMILES) | Dmax (p300) [%] | DC50 (p300) [nM] | DC50 (CBP) [nM] | Dmax (CBP) [%]
Cn1c(=O)n(C)c2c(N3CC(C)(O)C3)nc(-c3cccc4cc(-c5ccc(C(=O)NCC#Cc6ccc7occ(C8CCC(=O)NC8=O)c7c6)nc5)ncc34)cc21 (stereo not shown) [Example A145, N-(3-(3-(2,6-dioxo-piperidin-3-yl)benzofuran-5-yl)prop-2-yn-1-yl)-5-(8-(4-(3-hydroxy-3-methylazetidin-1-yl)-1,3-dimethyl-2-oxo-2,3-dihydro-1H-imidazo[4,5-c]pyridin-6-yl)isoquinolin-3-yl)picolinamide] | > 80 | < 1 | > 1000 | < 20
Cc1cc(-c2cc3cccc(-c4cc5c(c(N6CCOCC6)n4)n(C)c(=O)n5C)c3cn2)cnc1C(=O)NCC#Cc1ccc2occ(C3CCC(=O)NC3=O)c2c1 (stereo not shown) [Example A150, 5-(8-(1,3-dimethyl-4-morpholino-2-oxo-2,3-dihydro-1H-imidazo[4,5-c]pyridin-6-yl)isoquinolin-3-yl)-N-(3-(3-(2,6-dioxopiperidin-3-yl)benzofuran-5-yl)prop-2-yn-1-yl)-3-methylpicolinamide] | > 80 | 1 to 9.9 | > 1000 | < 20
Cc1cc(-c2cc3cccc(-c4ccc5c(c4)n(C)c(=O)n5C)c3cn2)cnc1C(=O)NCC#Cc1ccc2occ(C3CCC(=O)NC3=O)c2c1 (stereo not shown) [Example A155, 5-(8-(1,3-dimethyl-2-oxo-2,3-dihydro-1H-benzo[d]imidazol-5-yl)isoquinolin-3-yl)-N-(3-(3-(2,6-dioxo-piperidin-3-yl)benzofuran-5-yl)prop-2-yn-1-yl)-3-methylpicolinamide] | > 80 | 1 to 9.9 | > 1000 | < 20
CC(C)c1cc(-c2cccc3cc(-c4ccc(C(=O)NCC#Cc5ccc6oc(F)c(C7CCC(=O)NC7=O)c6c5)nc4)ncc23)cc2c1n(C)c(=O)n2C (stereo not shown) [Example A158, N-(3-(3-(2,6-dioxo-piperidin-3-yl)-2-fluorobenzofuran-5-yl)prop-2-yn-1-yl)-5-(8-(7-isopropyl-1,3-dimethyl-2-oxo-2,3-dihydro-1H-benzo [d]imidazol-5-yl)isoquinolin-3-yl)picolinamide] | > 80 | 1 to 9.9 | 10 to 99 | 40 to 59
Cc1cc(N2CCOc3nc(-c4ccc(C(=O)NCC#Cc5cc6c(C7CCC(=O)NC7=O)nccc6o5)nc4)ncc32)cc2c1n(C)c(=O)n2C (stereo not shown) [Example A160, N-(3-(4-(2,6-dioxo-piperidin-3-yl)furo[3,2-c]pyridin-2-yl)prop-2-yn-1-yl)-5-(5-(1,3,7-trimethyl-2-oxo-2,3-dihydro-1H-benzo[d]imidazol-5-yl)-6,7-dihydro-5H-pyrimido[4,5-b] [1,4]oxazin-2-yl)picolinamide] | > 80 | < 1 | > 1000 | < 20
CC(C)c1cc(N2CCOc3cc(-c4ccc(C(=O)NCC#Cc5ccn6ncc(C7CCC(=O)NC7=O)c6c5)nc4)ncc32)cc2c1n(C)c(=O)n2C (stereo not shown) [Example A161, N-(3-(3-(2,6-dioxo-piperidin-3-yl)pyrazolo[1,5-a]pyridin-5-yl)prop-2-yn-1-yl)-5-(4-(7-isopropyl-1,3-dimethyl-2-oxo-2,3-dihydro-1H-benzo[d]imidazol-5-yl)-3,4-dihydro-2H-pyrido[4,3-b][1,4]oxazin-7-yl)picolinamide] | > 80 | < 1 | 100 to 999 | < 20
Cn1c(=O)n(C)c2ncc(-c3cccc4cc(-c5ccc(C(=O)NCC#Cc6cc7c(C8CCC(=O)NC8=O)cccc7o6)nc5)ncc34)cc21 (stereo not shown) [Example A162, 5-(8-(1,3-dimethyl-2-oxo-2,3-dihydro-1H-imidazo[4,5-b]pyridin-6-yl)isoquinolin-3-yl)-N-(3-(4-(2,6-dioxopiperidin-3-yl)benzofuran-2-yl)prop-2-yn-1-yl)picolinamide] | > 80 | < 1 | 100 to 999 | < 20
Cn1c(=O)n(C)c2cc(-c3cccc4cc(-c5ccc(C(=O)NCC#Cc6ccc7nnn(C8CCC(=O)NC8=O)c7c6)nc5)ncc34)ccc21 (stereo not shown) [Example A163, 5-(8-(1,3-dimethyl-2-oxo-2,3-dihydro-1H-benzo[d]imidazol-5-yl)isoquinolin-3-yl)-N-(3-(1-(2,6-dioxo-piperidin-3-yl)-1H-benzo[d][1,2,3]triazol-6-yl)prop-2-yn-1-yl)picolinamide] | > 80 | < 1 | > 1000 | < 20

Further lines, results first:

Dmax (p300) [%] | DC50 (p300) [nM] | DC50 (CBP) [nM] | Dmax (CBP) [%] | Structure (SMILES)
> 80 | 10 to 99 | > 1000 | < 20 | CC(C)c1cc(-c2cccc3cc(-c4ccc(C(=O)NCC#Cc5ccc6scc(C7CCC(=O)NC7=O)c6c5)nc4)ncc23)cc2c1n(C)c(=O)n2C (stereo not shown) [Example A164, N-(3-(3-(2,6-dioxo-piperidin-3-yl)benzo[b]thiophen-5-yl)prop-2-yn-1-yl)-5-(8-(7-isopropyl-1,3-dimethyl-2-oxo-2,3-dihydro-1H-benzo [d]imidazol-5-yl)isoquinolin-3-yl)picolinamide]
> 80 | 1 to 9.9 | > 1000 | < 20 | Cn1c(=O)n(C)c2cc(N3CCOc4nc(-c5ccc(C(=O)NCC#Cc6cc7c(C8CCC(=O)NC8=O)cccc7o6)nc5)ncc43)ccc21 (stereo not shown) [Example A165, 5-(5-(1,3-dimethyl-2-oxo-2,3-dihydro-1H-benzo[d]imidazol-5-yl)-6,7-dihydro-5H-pyrimido[4,5-b][1,4]oxazin-2-yl)-N-(3-(4-(2,6-dioxopiperidin-3-yl)benzofuran-2-yl)prop-2-yn-1-yl)picolinamide]
> 80 | < 1 | > 1000 | < 20 | Cn1c(=O)n(C)c2cc(-c3cccc4cc(-c5ccc(C(=O)NCC#Cc6cc7c(C8CCC(=O)NC8=O)cccc7o6)nc5)ncc34)ccc21 (stereo not shown) [Example A169, 5-(8-(1,3-dimethyl-2-oxo-2,3-dihydro-1H-benzo[d]imidazol-5-yl)isoquinolin-3-yl)-N-(3-(4-(2,6-dioxo-piperidin-3-yl)benzofuran-2-yl)prop-2-yn-1-yl)picolinamide]
> 80 | < 1 | > 1000 | < 20 | Cn1c(=O)n(C)c2cc(-c3cccc4cc(-c5ccc(C(=O)NCC#Cc6cc7c([C@H]8CCC(=O)NC8=O)cccc7o6)nc5)ncc34)ccc21 [Example A170, (R)-5-(8-(1,3-dimethyl-2-oxo-2,3-dihydro-1H-benzo[d]imidazol-5-yl)isoquinolin-3-yl)-N-(3-(4-(2,6-dioxo-piperidin-3-yl)benzofuran-2-yl)prop-2-yn-1-yl)picolinamide]
> 80 | 1 to 9.9 | > 1000 | < 20 | Cn1c(=O)n(C)c2cc(-c3cccc4cc(-c5ccc(C(=O)NCC#Cc6cc7c([C@@H]8CCC(=O)NC8=O)cccc7o6)nc5)ncc34)ccc21 [Example A171, (S)-5-(8-(1,3-dimethyl-2-oxo-2,3-dihydro-1H-benzo[d]imidazol-5-yl)isoquinolin-3-yl)-N-(3-(4-(2,6-dioxopiperidin-3-yl)benzofuran-2-yl)prop-2-yn-1-yl)picolinamide]
